# From patent publication US9919058B2, “Polyketal particles including a CpG oligodeoxynucleotide for the treatment of lung cancer” (THE UNITED STATES OF AMERICA, as represented by the …, priority 2014, dated 2018)
# Like-named read-outs stand apart in the source and are kept apart here.
# Columns and labels:
# [1] = system: Lewis lung carcinoma (LLC1) cells
# Method: Treatment Protocols and Tumor Cell Implantation: C57BL/6, TLR9 KO and Rag1 KO mice were obtained from the National Cancer Institute (Frederick, Md.) and studied at 5-6 wk of age. […] On the day of inoculation, cultured cells were trypsinized, washed and suspended in 0.9% saline.
# One week later, free ODN or ODN-NP were administered either systemically (i.p.) or locally (i.t.). Instillation was achieved via orotracheal intubation using a 20 gauge 1″ catheter (TERUMO, Somerset, N.J.) under anesthesia. Survival curves were generated from 4-6 mice per group and all results derived by combining data from 2-4 independent experiments. All animals were monitored 3×/wk and moribund mice euthanized as per Institutional Animal Care and Use Committee protocol.
# Statistical Analysis: Statistical analyses were performed using MedCalc, version 13.0 (MedCalc Software, Mariakerke, Belgium). Differences in survival were determined using the log rank test of Kaplan-Meier. Differences between groups were assessed using a one-way ANOVA followed by Student-Newman-Keuls post-hoc test. […] All values are expressed as mean±SE.
# [2] = system: Rat; details: in vivo, po; cited from earlier work
# [3] = system: Lewis lung cancer; details: CpG ODN in combination with chemotherapy; cited from earlier work
# [4] = mouse, in vivo
# Method: Biodistribution of CpG ODN. LLC were implanted as described in FIG. 1. […] Tissue samples were stained to identify macrophages (red F4/80^+), DC (red CD205^+) or CpG (green) and analyzed by confocal microscopy.
# Immunohistochemistry and Immunofluorescent Analysis: Tissue sections were deparaffinized with xylene and rehydrated with graded ethanol. Endogenous peroxidase activity was blocked by incubation with 0.3% H2O2 in methanol for 30 min followed by Protein Block (Dako, Carpinteria, Calif.). […] Isotype matched negative controls were included to insure specificity.
# For immunohistochemistry, stained sections were incubated with HRP-conjugated anti-rat or rabbit IgG (simple stain mouse Max Po; Nichirei, Tokyo, Japan) plus 3-amino-9-ethyl carbazole (AEC) substrate for color development (Nichirei). The sections were counterstained with Mayer's hematoxylin (Dako) and images were obtained using an IX50 inverted microscope equipped with digital imaging system (Olympus, Center Valley, Pa.). […] Cell nuclei were visualized with DAPI (Vector). […] Fluorescent images were acquired with a laser-scanning confocal microscope (LSM 510; Zeiss, Thronwood, N.Y.), equipped with a 63x/1.4NA oil objective.
# [5] = system: Immune Cells; test: BAL cellularity and IL-12 after i.t. delivery to normal mice; type: in vivo; details: 50 μg i.t., BAL 2 days later
# Method: FIGS. 4A-4B. Activity of CpG-NP (aggregates provided microprticles “MP’) in vivo. 50 μg of CpG ODN (free or adsorbed onto NP) was administered i.t. to normal mice. BAL was collected and analyzed for (4A) cellularity and (4B) IL-12 levels 2 days later.
# Tissue Collection and Evaluation of Tumor Development: Bronchoalveolar lavage (BAL) fluid was obtained by tracheal cannulation of anesthetized mice. Cell differentials were performed on cytocentrifuged BAL preparations after fixation and staining with Diff-Quick (Dade Behring, Newark, Del.).
# IL-12 levels in BAL and serum were determined by ELISA. Lungs were inflated and fixed by instilling 1 mL of 10% neutral-buffered formalin or periodate lysine paraformaldehyde (PLP) fixative (Wako Chemicals USA, Inc. Richmond, Va.) at 20 cm H2O. Fixed tissue was embedded in paraffin, sectioned, and stained with hematoxylin and eosin for histopathological assessment. Tumor area was evaluated in mid-line sections and quantified using Image J software ver.1.48 (National Institute of Health, Bethesda, Md.).
# ELISA: Cytokine levels in BAL, serum, and culture supernatants were measured by ELISA as previously described (Klinman et al., PNAS 1996; 93:2879-2883). […] Samples were added and bound cytokine detected by the addition of biotin-labeled secondary Ab, followed by phosphatase-conjugated avidin and a phosphatase-specific colorimetric substrate. […]
# [6] = system: advanced NSCLC; details: cited from earlier work
# [7] = in vivo; cited from earlier work
# [8] = system: Spleen cells from WT or TLR9 KO mice; test: In vitro stimulation of spleen cells (CCK-8 proliferation; IL-6/IL-12 ELISA); type: cell-based
# Method: FIGS. 2A-2C. In vitro activity of CpG-NP (aggregates provided microprticles “MP’). Spleen cells from WT or TLR9 KO mice were cultured with 1 μM of free or NP adsorbed CpG ODN or 1 μg/mL of R837 (TLR7 ligand). 2A) Cell proliferation after 72 hr. 2B, 2C) IL-12 and IL-6 production after 24 hr.
# In Vitro Cell Proliferation Assay: Single spleen cell suspensions were prepared. 5×10^4 cells/well were cultured in 96-well flat bottomed microtiter plates in complete RPMI 1640 medium supplemented with 10% fetal calf serum, 100 U/mL penicillin, […], […], 1.0 mmol/L sodium pyruvate, NEAA, and 0.0035% 2-ME. The cells were stimulated free ODN, ODN-NP, or R837 (TLR7 agonist) for 72 hr. Cell proliferation was assessed using the CCK-8 assay as per manufacturer's recommendation (Dojindo molecular technologies, Inc. Rockville, Md.).
# ELISA: Cytokine levels in BAL, serum, and culture supernatants were measured by ELISA as previously described (Klinman et al., PNAS 1996; 93:2879-2883). Briefly, paired IL-6 and IL-12-specific mAbs were purchased from BD Pharmingen. Ninety-six-well Immulon H2B plates (Thermo LabSystems, Beverly, Mass.) were coated with capture cytokine-specific Abs and then blocked with PBS/1% BSA. Samples were added and bound cytokine detected by the addition of biotin-labeled secondary Ab, followed by phosphatase-conjugated avidin and a phosphatase-specific colorimetric substrate. Standard curves were generated using recombinant cytokines purchased from R&D Systems (Minneapolis, Minn.).
# [9] = system: large established tumor; details: 3M-052 co-delivered with CpG ODN into the tumor site; tumor size over 500 mm(3); cited from earlier work
compound,measurement,setting,value
"GCTAGAGCTTAGCGT [control ODN, reference compound]",effect on survival,[1]; i.t. delivery,no effect
"OCC1CCC(CO)CC1 (centres unmarked) [1,4-cyclohexanedimethanol]",LD50,[2],"3,200 mg/kg"
GCTAGACGTTAGCGT [CpG ODN],effect on survival,[3],significantly prolonged survival
same,clearance from the lungs,[4],rapidly cleared from the lungs
same,localisation in lung,[4],detected throughout the mucosal surface of the bronchial tree
same,localisation/persistence in lung and tumor,[4],little of this material remained in the bronchi or could be detected in the tumor
same,pulmonary IL-12 levels,[5],significant increase in pulmonary IL-12 levels
same,rise in BAL cellularity vs saline,[5]; normal mice,≈ 25%
same,median survival time,"[1]; 50 μg i.t. weekly for one month from day 7, C57BL/6, untreated 22 days",38 days
same,HR (survival vs No Rx),[1]; dose of ODN 10 μg,0.33
same,long term survival,[1]; dose of ODN 10 μg weekly for one month,< 40%
same,long term survival,[1]; dose of ODN 50 μg weekly for one month,> 80%
same,toxicity,[1]; dose of ODN 100 μg,evidence of toxicity (pulmonary inflammation and weight loss)
same,HR (survival vs No Rx),"[1]; intra-tracheal (i.t.) delivery, 50 μg",0.28
same,tumors on re-challenge of survivors with LLC,[1]; survivors of therapy re-challenged,no tumors arose
same,HR (survival vs No Rx),[1]; systemic (i.p.) delivery,0.55
same,effect on survival,[1]; systemic (i.p.) delivery,modest but statistically insignificant survival benefit
same,objective response rate,"[6]; patients who received CpG ODN, chemotherapy alone 19-23%",28-30%
same,survival benefit in phase 3 trials,"[6]; patients with NSCLC, phase 3",no survival benefit was observed
same,mean t1/2,[7],≈ 12 h
same,median tmax,[7],2 h
same,response of cells from TLR9 KO mice,[8]; TLR9 KO spleen cells,failed to respond
same,IL-6 and IL-12 secretion,"[8]; WT spleen cells, 1 μM, 24 hr",induced WT cells to secrete IL-6 and IL-12
same,cell proliferation,"[8]; WT spleen cells, 1 μM, 3 days (72 hr)",proliferate over 3 days
same,relative effectiveness of free CpG vs CpG-NP,"[8]; WT spleen cells, 24 hr vs 3 days of culture",more effective at the earlier time point
"CCCCCCCCCCCCCCCCCC(=O)NCCCCOn1c(CCCC)nc2c(N)nc3ccccc3c21 [3M-052, N-(4-{[4-amino-2-butyl-1H-imidazo[4,5-c]quinolin-1-yl]oxy}butyl) octadecanamide]",effect on established tumor,[9],eliminated the large established tumor
